Results from PubChem BioAssay (NCI).
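Interpolation was linear, between the two tested concentrations surrounding the appropriate level; five concentrations were tested over 48 hours in 96-well plates. GI50 marks 50% less growth. TGI marks complete inhibition of growth.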

Columns and labels:
Assay in all cases: NCI anticancer screen, dose series, 48 h
[1] = system: SR leukemia
[2] = system: BT-549 breast
[3] = system: UO-31 renal
[4] = system: SK-OV-3 ovarian
[5] = system: SF-268 CNS
[6] = system: OVCAR-3 ovarian
[7] = system: SW-620 colon
[8] = system: PC-3 prostate
[9] = system: OVCAR-5 ovarian
[10] = system: M14 melanoma

| SMILES | GI50 [1] | TGI [1] | GI50 [2] | TGI [2] | GI50 [3] | TGI [3] | GI50 [4] | TGI [4] | GI50 [5] | TGI [5] | GI50 [6] | TGI [6] | GI50 [7] | TGI [7] | GI50 [8] | TGI [8] | GI50 [9] | TGI [9] | GI50 [10] | TGI [10] |
| --- | --- | --- | --- | --- | --- | --- | --- | --- | --- | --- | --- | --- | --- | --- | --- | --- | --- | --- | --- | --- |
| CCCn1cc(C2=C(c3cn(C)c4ccccc34)C(=O)NC2=O)c2ccccc21 | 0.352 µM | 9.99 µM | 1.36 µM | 5.95 µM | 1.42 µM | 12 µM | 1.22 µM | > 19 µM | 2.64 µM | > 16.1 µM | 0.596 µM | 2.35 µM | 0.968 µM | > 25 µM | 1.03 µM | > 25 µM | 6.76 µM | > 25 µM | 1.83 µM | > 18.2 µM |
| O=C(O)c1cc(N/C=C2\C(=O)c3ccccc3OC2O)ccc1O (stereo not given) | 4.77 µg/mL | 36.9 µg/mL | 15 µg/mL | 71.8 µg/mL | 10.1 µg/mL | 46.2 µg/mL | 29.3 µg/mL | 75.1 µg/mL | 24 µg/mL | 108 µg/mL | 14.6 µg/mL | 47.2 µg/mL | 23.4 µg/mL | 54.2 µg/mL | 29.4 µg/mL | 120 µg/mL | 29.3 µg/mL | 74.9 µg/mL | 25.4 µg/mL | 66.1 µg/mL |
| CN(C)CCCNC(=O)c1cc(NC(=O)CCNC(=O)c2ccc3c(c2)C(=O)c2ccccc2C3=O)cn1C | 31 µM | 99.6 µM | > 100 µM | > 100 µM | > 100 µM | > 100 µM | > 100 µM | > 100 µM | 71 µM | > 100 µM | 33.2 µM | > 100 µM | > 100 µM | > 100 µM | > 100 µM | > 100 µM | > 100 µM | > 100 µM | > 100 µM | > 100 µM |
| Cc1cc(Cl)ccc1NC(=O)/C(Cl)=C(/Cl)C(=O)O |  | 36.4 µM |  | 41.7 µM |  | > 100 µM |  | > 100 µM |  | > 100 µM |  | 36.8 µM |  | 48.9 µM |  | 54.5 µM |  | 36.2 µM |  | 72.1 µM |
| O=C(CSc1nc2ccc([N+](=O)[O-])cc2[nH]1)Nc1cccc(Cl)c1 | 3.34 µM | > 45.7 µM | 2.72 µM | 10.8 µM | 1.97 µM | 9.99 µM | 2.03 µM | 6.45 µM | 3.04 µM | 21.8 µM | 2.38 µM | 14 µM | 3.38 µM | 19.8 µM | 2.63 µM | 16.1 µM | 2.7 µM | 13.4 µM | 3.06 µM | 13.6 µM |
| O=S(=O)(O)c1ccc(Cl)cc1.[Cd] | 22.8 µM | > 100 µM | 1.94 µM | 3.9 µM | > 100 µM | > 100 µM | > 100 µM | > 100 µM | 24.7 µM | 72 µM | 18.5 µM | 44.4 µM | 52.3 µM | > 100 µM | 25.2 µM | 66.3 µM | > 100 µM | > 100 µM | > 100 µM | > 100 µM |
| CCOC(=O)C1=C(N)Oc2c(sc3c(C)cccc23)C1c1ccc(Cl)cc1 (stereo not given) | 1.49 µM | 18 µM | 3.3 µM | 15.8 µM | 3.03 µM | 16.7 µM | 7.97 µM | 30.1 µM | 6.13 µM | 22.4 µM | 2.69 µM | 9.61 µM | 3.64 µM | 16.8 µM | 2.53 µM | 13.5 µM | 4.03 µM | 15.7 µM | 2.46 µM | 11.2 µM |
| CC(=O)Oc1ccc2ccc(=O)oc2c1OC(C)=O |  | > 100 µM |  | > 100 µM |  | > 100 µM |  | > 100 µM |  | > 100 µM |  | > 100 µM |  | > 100 µM |  | > 100 µM |  | > 100 µM |  | > 100 µM |
| Nc1ccccc1/C=N\Nc1ccccc1 | 26.6 µM | > 100 µM | 74.1 µM | > 100 µM | 2.43 µM | > 100 µM | > 100 µM | > 100 µM | > 100 µM | > 100 µM | 36.2 µM | > 100 µM | 11.5 µM | > 100 µM | 3.08 µM | > 100 µM | > 100 µM | > 100 µM | 4.05 µM | > 100 µM |
| O=C(CCc1nnc(-c2c(Cl)cccc2Cl)o1)c1nc2ccccc2[nH]1 | 2.63 µM | 15.2 µM | 7.54 µM | 92.4 µM | 6.71 µM | 32.9 µM | 4.6 µM | 30.5 µM | 7.29 µM | 46.6 µM | 5.63 µM | 24.8 µM | 3.46 µM | 16.3 µM | 3.71 µM | > 100 µM | 7.82 µM | > 100 µM | 5.86 µM | 31.5 µM |
